Data taken from patent US5079237A, “Inclusion complex of nicardipine or its hydrochloride with beta-cyclodextrin and a sustained release pharmaceutical preparation containing the same” (priority 1988, dated 1992).
Structures can show the parent of a compound that is named as a salt.

How the values were obtained:
[1] = Differential scanning calorimetry: thermal stability (Example 4); type: physicochemical; settings: DSC
Method: Nicardipine hydrochloride melts at 160° C., its thermal decomposition beginning at about 200° C. Beta-cyclodextrin contains combined water, which begins to separate off the sample already at about 40° C. The dehydratation of beta-cyclodextrin is completed at about 100° C. Anhydrous beta-cyclodextrin is stable up to 270° C., when thermal decomposition starts, which becomes intensive at 300° C. The behaviour of the inclusion complex of nicardipine hydrochloride with beta-cyclodextrin at the thermoanalytical assay is quite different. After the initial slight loss of weight at temperatures below 150° C., which can be attributed to the adsorbed moisture, the substance is stable up to about 220° C, when thermal decomposition sets in. […] The DSC scans of nicardipine hydrochloride, beta-cyclodextrin, the physical mixture of nicardipine hydrochloride and beta-cyclodextrin and of the inclusion complex of nicardipine hydrochloride with beta-cyclodextrin clearly indicate the formation of the inclusion complex of nicardipine hydrochloride with beta-cyclodextrin. Thus, the differential scanning calorimetry measurements are in accordance with the powder X-ray diffraction patterns.

[2] = Solubility in water of nicardipine (hydrochloride), complexed and non-complexed (Example 3); type: physicochemical; settings: room temperature, saturated solution
Method: Solubility in water Comparative solubility of nicardipine and its hydrochloride resp. alone and of its inclusion complex with beta-cyclodextrin. The concentrations of the dissolved nicardipine and its hydrochloride resp. at room temperature were determined in clear filtrates of the saturated solutions by liquid chromatography using the external standard method.

[3] = Dissolution rate in artificial biological fluids, Paddle Method, USP XXI (Example 5); type: physicochemical; settings: for % dissolution: 37° C., mean of three tests
Method: Dissolution rates of the complexed and the non-complexed nicardipine and its hydrochloride
40 mg of nicardipine hydrochloride or the equivalent amount of […] of the inclusion complex of nicardipine with beta-cyclodextrin were used.
The dissolution tests were performed in artificial gastric juice of pH 1.2 and in artificial intestinal juices of pH 6.0, 6.5 and 7.4 at the temperature of 37° C.±0.5° C. The volume of the artificial biological fluids was 1000 ml. The rotation speed of the paddle mixer was 100 rpm. The quantities of the dissolved nicardipine hydrochloride in the test samples were determined spectrophotometrically (λmax =240 nm).

[4] = Acute toxicity (LD50) in mice after p.o. administration (Example 6); type: in vivo; settings: mouse, in vivo, po; for mortality at 24 h: read-out: % of perished animals after 24 hrs; for mortality at 360 h: read-out: % of perished animals after 15 days; for LD50 at 360 h: mice, p.o., Litchfield-Wilcoxon, read-out: LD50 after 15 days
Method: (§1) In toxicological tests acute toxicities (LD50) of nicardipine hydrochloride and of its inclusion complex with beta-cyclodextrin were determined in mice and rats. The complex contained 26.8% of nicardipine hydrochloride.
(§2) Albino laboratory mice weighing 18 to 24 g and rats weighing 180 to 240 g of both sexes were used. Nicardipine hydrochloride was administered in the following doses:
(§3) The volume of the administered suspension was in mice 0.2 to 0.4 ml/20 g of body weight and in rats 0.8 to 2.4 ml/200 g of body weight.
(§4) The inclusion complex of nicardipine hydrochloride with beta-cyclodextrin was administered in the following doses:
(§5) mice: 18500 mg/kg of body weight, corresponding to
(§6) 4958 mg of nicardipine/kg of body weight;
(§7) The volume of the administered suspension was in mice 0.6 ml/20 g of body weight and in rats 1.2 to 4.4 ml/200 g of body weight. The animals were left without food for 18 hours before the administration. After the administration the animals were put under observation and the symptoms of poisoning or behaviour changes were recorded for another 15 days. During the tests the animals were given food and water ad libitum.
(§8) The results were statistically evaluated according to the Litchfield-Wilcoxon method (J. Pharmacol. Exp. Therap. 96, 99 (1949)).

mice = experiment: as above; type: in vivo; settings: mice, p.o.; for LD50 after 15 days: Litchfield-Wilcoxon, 21600 min
Method: as §1, §2, §3, §4, §5, §6, §7, §8

[5] = Acute toxicity (LD50) in rats after p.o. administration (Example 6); type: in vivo; settings: rat, in vivo, po; for mortality at 24 h: read-out: % of perished animals after 24 hrs; for mortality at 360 h: read-out: % of perished animals after 15 days; for LD50 at 360 h: rats, p.o., Litchfield-Wilcoxon, read-out: LD50 after 15 days
Method: as §1, §2, §3, §4
(§9) rats: 5000 mg/kg of body weight, corresponding to
(§10) 1340 mg of nicardipine/kg of body weight,
(§11) 11100 mg/kg of body weight, corresponding to
(§12) 2975 mg of nicardipine/kg of body weight,
(§13) 18500 mg/kg of body weight, corresponding to
(§14) 4958 mg of nicardipine/kg of body weight.
as §7, §8

rats = experiment: as above; type: in vivo; settings: rats, p.o.; for LD50 after 15 days: Litchfield-Wilcoxon, 21600 min
Method: as §1, §2, §3, §4, §9, §10, §11, §12, §13, §14, §7, §8

[6] = cited from earlier work
[7] = known from DE patent 24 07 115; cited from earlier work
[8] = 1500 mg/kg, mice F, 1500 mg/kg p.o.
[9] = 1500 mg/kg, mice M, 1500 mg/kg p.o.
[10] = 3000 mg/kg, mice F, 3000 mg/kg p.o.
[11] = 3000 mg/kg, mice M, 3000 mg/kg p.o.
[12] = 4000 mg/kg, mice F, 4000 mg/kg p.o.
[13] = 5000 mg/kg, mice F, 5000 mg/kg p.o.
[14] = 5000 mg/kg, mice M, 5000 mg/kg p.o.
[15] = 6000 mg/kg, mice F, 6000 mg/kg p.o.
[16] = 6000 mg/kg, mice M, 6000 mg/kg p.o.
[17] = 2000 mg/kg, rats M, 2000 mg/kg p.o.
[18] = 2500 mg/kg, rats M, 2500 mg/kg p.o.
[19] = 3000 mg/kg, rats F, 3000 mg/kg p.o.
[20] = 3500 mg/kg, rats M, 3500 mg/kg p.o.
[21] = 4000 mg/kg, rats F, 4000 mg/kg p.o.
[22] = 5000 mg/kg, rats F, 5000 mg/kg p.o.
[23] = 5000 mg/kg, rats M, 5000 mg/kg p.o.
[24] = 6000 mg/kg, rats F, 6000 mg/kg p.o.

In the case of OC[C@H]1O[C@@H]2O[C@H]3[C@H](O)[C@@H](O)[C@@H](O[C@H]4[C@H](O)[C@@H](O)[C@@H](O[C@H]5[C@H](O)[C@@H](O)[C@@H](O[C@H]6[C@H](O)[C@@H](O)[C@@H](O[C@H]7[C@H](O)[C@@H](O)[C@@H](O[C@H]8[C@H](O)[C@@H](O)[C@@H](O[C@H]1[C@H](O)[C@H]2O)O[C@@H]8CO)O[C@@H]7CO)O[C@@H]6CO)O[C@@H]5CO)O[C@@H]4CO)O[C@@H]3CO [beta-cyclodextrin], the “onset of thermal decomposition (stable up to)” value [1] is reported as 270 °C and the “temperature at which thermal decomposition becomes intensive” value ([1]; anhydrous) is reported as 300 °C.

With COC(=O)C1=C(C)NC(C)=C(C(=O)OCCN(C)Cc2ccccc2)C1c1cccc([N+](=O)[O-])c1 (stereo not shown) [nicardipine hydrochloride] the solubility [2] was 1500 µg/mL, the “dissolution, in words” value ([3]; gastric juice) was “dissolves quickly and completely” and the “% dissolution” value ([3]; gastric juice, pH 1.2, 10 min) was 93.5%. For the same compound, the “% dissolution” value ([3]; gastric juice, pH 1.2, 30 min) was 100.2%, the “% dissolution” value ([3]; intestinal juice, pH 6.0, 10 min) was 50.2% and the “% dissolution” value ([3]; intestinal juice, pH 6.0, 30 min) was 58.7%. For the same compound, the “% dissolution” value ([3]; intestinal juice, pH 6.5, 10 min) was 35.5%, the “% dissolution” value ([3]; intestinal juice, pH 6.5, 30 min) was 39.0% and the “% dissolution” value ([3]; intestinal juice, pH 7.4, 10 min) was 1.0%. For the same compound, the “% dissolution” value ([3]; intestinal juice, pH 7.4, 30 min) was 1.3%, the mortality at 24 h [4, 8] was 20% and the mortality at 360 h [4, 8] was 20%. It also gave a mortality at 24 h [4, 9] of 0%, a mortality at 360 h [4, 9] of 0% and a mortality at 24 h [4, 10] of 40%. It also gave a mortality at 360 h [4, 10] of 40%, a mortality at 24 h [4, 11] of 30% and a mortality at 360 h [4, 11] of 40%. For the same compound, the mortality at 24 h [4, 12] was 30%, the mortality at 360 h [4, 12] was 50% and the mortality at 24 h [4, 13] was 40%. It also gave a mortality at 360 h [4, 13] of 70%, a mortality at 24 h [4, 14] of 40% and a mortality at 360 h [4, 14] of 70%. It also gave a mortality at 24 h [4, 15] of 90%, a mortality at 360 h [4, 15] of 90% and a mortality at 24 h [4, 16] of 90%. The mortality at 360 h [4, 16] was 100%, the LD50 at 360 h ([4]; F) was 3640 mg/kg and the LD50 at 360 h ([4]; M) was 3760 mg/kg. The “LD50 after 15 days” value (mice; F) was 3639 (2637-5022) mg/kg, the “LD50 after 15 days” value (mice; M) was 3756 (2815-5012) mg/kg and the recovery of animals (mice) was “recovered after 24 hours”. For the same compound, the symptoms of poisoning (mice) was “dyspnoea and paresis”, the mortality at 24 h [5, 17] was 40% and the mortality at 360 h [5, 17] was 40%. It also gave a mortality at 24 h [5, 18] of 40%, a mortality at 360 h [5, 18] of 40% and a mortality at 24 h [5, 19] of 0%. It also gave a mortality at 360 h [5, 19] of 0%, a mortality at 24 h [5, 20] of 60% and a mortality at 360 h [5, 20] of 60%. For the same compound, the mortality at 24 h [5, 21] was 10%, the mortality at 360 h [5, 21] was 20% and the mortality at 24 h [5, 22] was 44.4%. For the same compound, the mortality at 360 h [5, 22] was 66.6%, the mortality at 24 h [5, 23] was 80% and the mortality at 360 h [5, 23] was 80%. For the same compound, the mortality at 24 h [5, 24] was 80%, the mortality at 360 h [5, 24] was 80% and the LD50 at 360 h ([5]; F) was 4790 mg/kg. For the same compound, the LD50 at 360 h ([5]; M) was 2900 mg/kg, the “LD50 after 15 days” value (rats; F) was 4791 (4206-5458) mg/kg and the “LD50 after 15 days” value (rats; M) was 2900 (1635-5143) mg/kg. The recovery of animals (rats) was “recovered after 24 hours”, the symptoms of poisoning (rats) was “dyspnoea and paresis” and the “onset of thermal decomposition (stable up to)” value [1] was “about 200 °C”. The “solubility at higher pH values” ([6]; higher pH values) was “very poor” and the “solubility at low pH values” ([6]; low pH values) was “good”.

For COC(=O)C1=C(C)NC(C)=C(C(=O)OCCN(C)Cc2ccccc2)C1c1cccc([N+](=O)[O-])c1 (stereo not shown) [nicardipine, 2-(N-benzyl-N-methylamino)-ethyl methyl 2,6-dimethyl-4-(m-nitrophenyl)-1,4-dihydropyridine-3,5-dicarboxylate], the toxicity [7] is given as “low toxicity”, the “solubility in biological fluids” value ([6]; pH of 5 to 8) is given as “poor solubility” and the water solubility ([6]; water) is given as “unsatisfactory”.
